How the values were obtained:
mice = assay: Acute toxicity resulting from single under skin injection in mice; format: in vivo, male ddY mice; conditions: single under skin injection 1 g/kg; for Case of death: groups of five mice; for Case of death / Observed items: observed 1 week; for body weight of the mice following injection: weighed on days 1, 3, 6, 7
Procedure: (§1) An investigation was carried out using 5 week old male ddY mice.
(§2) Each compound (250 mg) was placed in suspension using the same amount of Tween-80, and then diluted with physiologic saline (5 mL) to form a 5% suspension. Then, supersonic treatment was performed to create the specimen. 0.2 mL/10 g (1 g/kg) of the specimen was injected per body weight under the skin of the back portion of each mouse in groups of five mice. The behavior of the mice was then observed for 1 week after injection while the mice were fed. The body weight of the mice was measured on the 1st, 3rd, 6th and 7th days. After one week, an abdominal section was performed, and changes in the various internal organs and abnormality of the injected area checked for.

[1] = as above; format: in vivo, male ddY mice; conditions: male, ddY, mouse, in vivo, subcutaneous, 1 g/kg; single under skin injection, mice
Procedure: as §1, §2

guinea pigs' skin = assay: Blocking effects against UV ray irradiated on guinea pigs' skin; format: in vivo, male Hartley guinea pigs; conditions: for UV ray blocking effect score: total score for 2.5% and 5% ointments, 6 irradiated sites each scored 0-4, complete blocking = 24, UV 3000 Lux for 90 s, read 24 hours after irradiation
Procedure: Each compound of the present invention and commercially available p-methoxy cinnamic acid-2-ethyl hexyl as a positive reference were mixed with an ointment base (Plastibase), and 2.5% (mass % of active ingredient) and 5% ointment were prepared for each. The belly area of male Hartley guinea pigs that were 6 to 10 weeks old was shaved, and then further close shaved using an electric shaver. The test animals were then anaesthetized by injecting pentobarbital sodium (30 mg/kg) in their abdominal cavity. Then, 100 mg of the base material, 2.5% ointment and the 5% ointment were respectively spread in 6 to 7 cm long/15 cm wide areas of the shaved belly area of the test animal starting from its head. 10 minutes after spreading, the skin was covered with a piece of felt in which 9 holes (3×3) with 1 cm diameter had been made. A UV ray (3000 Lux) was then irradiated for a 90 second period. 24 hours after the irradiation, the intensity of the red circular marks that had been produced were observed, and the blocking effect investigated. Note that, the evaluation of the UV ray blocking effect was carried out in accordance with the following evaluation criteria (score based on 5 level evaluation).
In advance, 99 types of related compound were prepared using the test method described above as 10% ointments including the compounds of the present invention (the compounds expressed by formula I) and the compounds that are the active ingredient of the UV ray protection agent of the present invention (the compounds expressed by formula I′). A screening test was performed, and 9 compounds that 100% blocked the UV rays selected. Then, lower concentration ointments were prepared for these 9 compounds and an investigation was carried out to test the UV ray protection effect thereof. Note that, as a reference compound, the results for p-methoxy cinnamic acid ethyl hexyl that is used as the active ingredient in commercially sold UV ray protection agents are also shown.

SMILES | body weight by the 7th day following injection (mice) | Case of death (mice) | Observed items (mice) | body weight of the mice following injection (mice) | LD50 at 1 week [1] [mg/kg] | UV ray blocking effect score (guinea pigs' skin) | UV ray protection effect (in words) (guinea pigs' skin; 2.5% and 5% ointments, comparison within Table 1)
Cc1ccc(OC(=O)c2ccc3ccccc3c2)cc1 [CU-5004, p-tolyl-2-naphthyl carboxylate] | recovered to its level at the time of the first injection | 0/5 | Weight reduction | decreased | ≥ 1000 | 20 | –
COc1cccc(C(=O)Oc2ccc(C)cc2)c1 [CU-5008] | recovered to its level at the time of the first injection | 0/5 | Weight reduction | decreased | ≥ 1000 | 13 | –
Cc1ccccc1OC(=O)c1ccc2ccccc2c1 [CU-2010, o-tolyl-2-naphthyl carboxylate] | – | – | – | – | – | 21 | –
O=C(Oc1cccc2ccccc12)c1ccccc1F [CU-9005] | – | – | – | – | – | 24 | strongest UV ray protection effect
Cc1ccc([N+](=O)[O-])cc1OC(=O)C=Cc1ccccc1 [CU-11005] | – | – | – | – | – | 12 | –
C/C=C/C(=O)Nc1ccccc1C(=O)O [CU-1008] | – | – | – | – | – | 20 | –
COc1cccc(C(=O)Oc2ccccc2C)c1 [CU-2102] | – | – | – | – | – | 15 | –
O=C(Oc1ccc2ccccc2c1)c1ccccc1F [CU-10005] | – | 0/5 | No abnormalities | increased following injection in the same manner as the body weight of the mice in a reference group | ≥ 1000 | 7 | –
COc1ccc(C(=O)Oc2ccc(C)cc2)cc1 [CU-5009, p-tolyl anisate] | recovered to its level at the time of the first injection | 0/5 | Weight reduction | decreased | ≥ 1000 | 19 | –
CCCCC(CC)COC(=O)C=Cc1ccc(OC)cc1 (stereo not drawn) [p-Methoxy-cinnamic acid-2-ethyl hexyl, reference compound] | – | – | – | – | – | 18 | –

Reference: patent US7361785B2, “Compound protecting against ultraviolet rays” (Lead Chemical Co., Ltd., priority 2002, dated 2008)
